Results on 2 substances are retold here after patent US20250304623A1, “PEPTIDES FOR INTRACELLULAR DELIVERY” (UNIVERSIDADE DE SANTIAGO DE COMPOSTELA, priority 2022, published 2025).

*: point of attachment. NHNH2 = NN*

Holding throughout (format): cell-based
For experiment [1], the system named is Hela cells expressing EGFP. As to the kind of experiment: Cas9-RNP delivery against EGFP (gene editing, plate reader), HeLa. On the procedure:
(§1) To generate an EGFP expressing HeLa cell line, HeLa cells were transfected with EGFP pDNA (pEGFP-C1, Clontech) and stable transfectants were selected with 400 μg/mL of G-418 (Millipore). Green clones were selected by epifluorescence microscopy and tested for EGFP expression stability through several passages. […] All other EGFP-expressing cell lines were obtained in a similar way from parent non-EGFP-expressing cell lines.
(§2) Cells expressing EGFP were seeded in a 96 well plate the day before the experiment at a concentration of 50,000 cell/mL (100 μL/w) in DMEM+10% FBS+1% Gln-Abt. For robotic library screening, the delivery of Cas9-RNP against EGFP (RNP designed to knock-out the gene encoding for the enhanced green fluorescent protein (EGFP)) was performed. For RNP assembly, 9.2 μL of crRNA and 9.2 μL of tracrRNA were mixed in 211.6 μL of Nuclease-Free Duplex Buffer (IDT), incubated for 5 min at 95° C. and slowly cooled at rt (see I. Lostalé-Seijo, et al. Peptide/Cas9 nanostructures for ribonucleoprotein cell membrane transport and gene edition, Chem. Sci., 2017). Cas9 protein was dissolved in DMEM at a final concentration of 4 μM and equal volumes of the RNA complex and Cas9 were mixed and incubated for 5 min at rt. 75 μL of the corresponding amphiphile concentrations were added to 5 μL of RNP at 2 μM. The mixture was shaken for 30 min at room temperature before the addition to the cells. The cell medium was aspirated, and cells were washed twice with PBS. Cells were covered with 30 μL of DMEM and 20 μL of the RNP/amphiphile complexes were added to the cells (final peptide concentrations=2.5, 5 and 10 μM; final Cas9-RNP concentration=50 nM) and incubated for 4 h. After the incubation, the medium was replaced by 100 μL of fresh DMEM supplemented with 10% FBS. The total EGFP fluorescence was quantified after 72 h in a plate reader (FIG. 2, Table 1 (right) and Table 6). All experiments were done in triplicate.
(§3) Tables 1-7: RLuc (pDNA) or EGFP (mRNA) expression levels were normalized to Lipofectamine reagents (value=1) and expressed as fold-times signal increase. In the case of siRNA, the siRNA treated cells fluorescence was compared with siMOCK control fluorescence, while Cas9-RNP mediated knockout was measured against the fluorescence of untreated cells. In both siRNA and Cas9-RNP, values are expressed as % fluorescence reduction. Amphiphile concentration was 5 μM in all cases. All experiments were performed in triplicate.
(§4) Tables 26-31 show the mean (triplicates) percentage of gene editing, accounted by GFP fluorescence intensity decrease (% of reduction), measured after the transfection of Cas9-RNP by different amphiphiles at different concentrations in a variety of cell lines. Background values, accounted by untreated control cells, were subtracted for processing.

In experiment [2] the test system is HepG2 cells expressing EGFP. As to the kind of experiment: EGFP-targeting siRNA delivery (GFP silencing vs siMOCK), HepG2. Here is the method: as §1
Cells expressing EGFP were seeded in a 96 well plate the day before the experiment at a concentration of 50,000 cell/mL (100 μL/w) in DMEM+10% FBS+1% Gln-Abt. For robotic library screening, the delivery of an EGFP-targeting siRNA (EGFP: enhanced green fluorescent protein, Ambion® Silencer® GFP Positive Control siRNA (siGFP) (AM4626)) in six different cell lines expressing EGFP was performed. […] The mixture was shaken for 30 min at room temperature (rt) before the addition to the cells. The cell medium was aspirated, and cells were washed twice with PBS. Finally, 50 μL of the solution of siRNA/amphiphile complexes were added to the cells and incubated for 4 h. After transfection, the medium was replaced by 100 μL of fresh DMEM supplemented with 10% FBS. The fluorescence knockdown was quantified after 72 h in a plate reader, by comparison with cells transfected with a non-targeting siRNA control (siMOCK, Silencer™ Negative Control No. 1 siRNA (siMOCK) (AM4611)). EGFP knockdown was compared with Lipofectamine® RNAiMAX silencing efficiency (30-60% depending on cell line, defined with a numeric value in the below tables). All experiments were done in triplicate.
as §3
Tables 20-25 show the mean (triplicates) percentage of GFP-silencing, accounted by fluorescence intensity decrease relative to a non-targeting siRNA (siMOCK) control, measured after the transfection of siRNA by different amphiphiles at different concentrations in a variety of cell lines. Background values, accounted by untreated control cells, were subtracted for processing.

The test system of experiment [3] is HCT116 cells expressing EGFP. Kind of experiment: Cas9-RNP delivery against EGFP (gene editing, plate reader), HCT116. Here is the method:
as §1
as §2, with “triplicate. […]” for “triplicate.”
as §4

With “Ac-RK*LRK*K*L-NH2 (Ac-RK(NHNH2)LRK(NHNH2)K(NHNH2)L-NH2; not fully specified; printed as Ac-RK*LRK*K*L-NH2; also: K*2,K*5,K*6: native or modified lysine (ε-amide to a linker)) [Peptide 7.3]”, the “percentage of gene editing, GFP fluorescence intensity decrease (% of reduction)” value is recorded as 10% in experiment [1] (Dodecanal, 5 μM, Hela cells); 2% in experiment [1] (Dodecanal, 10 μM, HeLa cells); −3% in experiment [1] (Dodecanal, 15 μM, Hela cells); 24% in experiment [1] (Myristoleyl, 5 μM, HeLa cells); 27% in experiment [1] (Myristoleyl, 10 μM, HeLa cells); 25% in experiment [1] (Myristoleyl, 15 μM, Hela cells). Besides, the “percentage of gene editing, GFP fluorescence intensity decrease (% of reduction)” value in experiment [1] (Oleyl, 10 μM, HeLa cells) is reported as −9%; in experiment [1] (Palmitoleyl, 5 μM, HeLa cells) it was 20%; in experiment [1] (Palmitoleyl, 10 μM, HeLa cells), 13%; in experiment [1] (Petroselinyl, 5 μM, HeLa cells), 6%; in experiment [1] (Petroselinyl, 10 μM, Hela cells), 11%; in experiment [1] (Petroselinyl, 15 μM, Hela cells) it was 33%. Besides, the “percentage of gene editing, GFP fluorescence intensity decrease (% of reduction)” value in experiment [3] (Dodecanal, 15 μM) is recorded as −11%; in experiment [3] (Myristoleyl, 15 μM) it was 4%; in experiment [3] (Oleyl, 5 μM), −7%; in experiment [3] (Oleyl, 10 μM), 4%; in experiment [3] (Palmitoleyl, 5 μM), −12%; in experiment [3] (Palmitoleyl, 10 μM) it was 17%. Besides, the “percentage of gene editing, GFP fluorescence intensity decrease (% of reduction)” value in experiment [3] (Palmitoleyl, 15 μM) was determined as 35%; in experiment [3] (Petroselinyl, 5 μM) it was 39%; in experiment [3] (Petroselinyl, 10 μM), 34%. For the same substance, the “percentage of GFP-silencing relative to siMOCK” value in experiment [2] (Dodecanal, 10 μM) stood at 17%; in experiment [2] (Dodecanal, 15 μM), 10%; in experiment [2] (Myristoleyl, 5 μM), 6%; in experiment [2] (Myristoleyl, 10 μM), 5%; in experiment [2] (Myristoleyl, 15 μM) it was 3%; in experiment [2] (Oleyl, 5 μM), 7%. For the same substance, the “percentage of GFP-silencing relative to siMOCK” value came out at 9% in experiment [2] (Oleyl, 10 μM); 9% in experiment [2] (Palmitoleyl, 5 μM); 18% in experiment [2] (Petroselinyl, 5 μM); 19% in experiment [2] (Petroselinyl, 10 μM).

Take “Ac-RK*LRRK*L-NH2 (Ac-RK(NHNH2)LRRK(NHNH2)L-NH2; not fully specified; printed as Ac-RK*LRRK*L-NH2; also: K*2,K*6: native or modified lysine (ε-amide to a linker)) [Peptide 7.2]”: the “percentage of gene editing, GFP fluorescence intensity decrease (% of reduction)” value in experiment [1] (Dodecanal, 5 μM, Hela cells) is reported as 6%; in experiment [1] (Dodecanal, 10 μM, HeLa cells) it was −22%; in experiment [1] (Dodecanal, 15 μM, Hela cells) it was −26%; in experiment [1] (Myristoleyl, 5 μM, HeLa cells), −7%; in experiment [1] (Myristoleyl, 10 μM, HeLa cells), −18%; in experiment [1] (Myristoleyl, 15 μM, Hela cells) it was −6%. Besides, in experiment [3] (Dodecanal, 15 μM), the “percentage of gene editing, GFP fluorescence intensity decrease (% of reduction)” value was −18%. Moreover, the “percentage of GFP-silencing relative to siMOCK” value in experiment [2] (Dodecanal, 10 μM) is recorded as 14%; in experiment [2] (Dodecanal, 15 μM), 7%; in experiment [2] (Myristoleyl, 5 μM), −12%; in experiment [2] (Myristoleyl, 10 μM), −1%; in experiment [2] (Myristoleyl, 15 μM), −32%.
